# Results reported in a melting point compilation (Tetko et al.; mined from patent text by program, amines drawn as free bases though some values may be those of a salt).
row,melting point [°C],SMILES
1,292 to 293,COc1ccc(Cc2nnc3c4ccccc4c(Nc4cccc(-c5nn[nH]n5)c4)nn23)cc1
2,70 to 72,C=CC[C@H]1CC(C(=O)OC)=C[C@H](N=[N+]=[N-])[C@H]1OS(C)(=O)=O
3,> 250,Cc1cccc(NC(=O)N[C@H]2C[C@@](N)(C(=O)O)[C@@H]3[C@@H](C(=O)O)[C@@H]32)c1 (relative stereo)
4,131 to 133,CCOCC(=O)C(=CN(CC)CC)c1cccc(C(F)(F)F)c1
5,91.7 to 92.9,CCOc1ccc(-c2nc(CCC(=O)c3ccccc3C(=O)OC)cs2)cc1OCC
6,250,Cc1nc(NC(=O)c2cnn3c(C(F)(F)F)cc(-c4ccc(C(F)(F)F)cc4)nc23)sc1S(=O)(=O)NC(C)(CO)CO
7,150 to 151,ClCc1coc(-c2cc3ccccc3s2)n1
8,163 to 164,CCOCc1nc2c(N)nc3ccccc3c2n1CCCc1cc(C)no1
9,124 to 134,COc1cc(OCc2ccncc2)ccc1/C=C/c1cc(/C=C/c2cc3ccccc3[nH]2)n[nH]1
10,131 to 134,COC(=O)c1nn(Cc2ccc(Br)cc2F)c(=O)c2ccc(F)cc12
11,40 to 41,CON=CC1CCCN(C(=O)Oc2ccccc2)C1 (stereo not drawn)
12,154 to 156,O=C(O)C=Cc1cc(OCc2ccccc2)cc(OCc2ccccc2)c1
13,142 to 144,CCCON=C(C(=O)OCC)c1csc(N)n1
14,140 to 142,CCCC1C(C(=O)OCC)C(O)(C(F)(F)F)NC(O)(C(F)(F)F)C1C(=O)OCC (stereo not drawn)
15,139 to 140,CCCCCS(=O)(=O)NC(=O)/C=C/c1cc(C2CC2)nn1Cc1ccc(C(F)(F)F)cc1Cl
16,339,Nc1c(Cl)cc(Nc2ncnc3cnc(N[C@H]4CC[C@H](C(=O)O)CC4)nc23)cc1Cl
17,172,CCC(C(=O)c1ccc(Cl)cc1)n1ncn(-c2ccc(N3CCN(C(=O)Cc4ccccc4)CC3)cc2)c1=O (stereo not drawn)
18,89 to 90,OC1(Cn2cncn2)C(Cc2ccc(F)cc2)CCC12CC2 (stereo not drawn)
19,253 to 255,O=C(C1CCC1)N1C[C@@H](c2c[nH]c3ccccc23)[C@H](c2cn3c4c(cccc24)CCC3)C1
20,128 to 131,CCOC(=O)C1[C@@H]2[C@@H](O)[C@@H]3O[C@H](c4ccc(C(F)(F)F)cc4)OC[C@H]3O[C@H]12 (stereo partly drawn)
21,92 to 93,CCOC(=O)c1cnn(-c2ccccn2)c1N
22,157 to 159,O=C(O)Cc1ccc(N2CC3CCCCC3C2=O)cc1 (stereo not drawn)
23,58 to 86,O=C1NCCN1Cc1cccnc1
24,260 to 263,O=C1NC(=O)C2(CC(O)c3ccccc32)N1 (stereo not drawn)
25,53 to 57,COc1nccc2c(N)cccc12

row,melting point [°C],SMILES
1,86 to 88,CCCCCCCCCCCCCCCCSCC(CNS(=O)(=O)CCCCl)NC(C)=O (stereo not drawn)
2,90 to 93,COCCOC(=O)c1ccc(O)cc1
3,89.5 to 90.5,CCOC(=O)COc1cccc2oc(-c3ccccc3)cc(=O)c12
4,295 to 296,O=c1[nH]c2c(c3nc(-c4ccccc4Cl)nn13)CN(Cc1ccccc1)CC2
5,191 to 192,N#Cc1cc(Cl)ccc1N1CCN(Cc2cn3cc(Cl)ccc3n2)CC1
6,40 to 41.5,CC(C)(C)Oc1ccc(I)cc1
7,147 to 150,CN(Cc1ccccc1)c1nc(N2CCOCC2)nc(-n2c(C(F)F)nc3ccccc32)n1
8,223 to 225,CC1CC(=O)NN=C1c1ccc(N2CCOCC2)c([N+](=O)[O-])c1 (stereo not drawn)
9,213,O=C1CCC(c2ccccc2)(c2ccccc2)[C@@H]2CN(C(=O)Cc3ccc(Cl)cc3)C[C@H]12 (racemic)
10,134 to 136,CC(C)C(C#N)c1ccc(O)c(O)c1 (stereo not drawn)
11,79,C=CC(=O)N[C@H](C)C(=O)OC1(C)CCC(C(C)C)CC1 (stereo partly drawn)
12,84 to 86,COCC(=O)Nc1cc2c(cc1Br)CCC2
13,317 to 319,O=C(Nc1ccc(-c2cnc(-c3ccc(NC(=O)c4cccnc4)cc3)[nH]2)cc1)c1cccnc1
14,142 to 144,C/C(NC1CCCCC1)=C(\C#N)C(N)=S
15,148 to 149,CC(CC(F)(F)CC(C)(C)O)C1CCC2C3CC=C4CC(O)CCC4(C)C3CCC12C (stereo not drawn)
16,74 to 76,CN1c2ccccc2C(C)(C)C1CC#N (stereo not drawn)
17,185 to 187,CCc1cccc2c1OC(C(F)(F)F)C(C(=O)O)=C2 (stereo not drawn)
18,126 to 127,CC12CCC3c4ccc(OCc5ccccc5)cc4CCC3C1CCC2=O (stereo not drawn)
19,167 to 169,Cc1nc(N2CCN(CCCC(F)(F)F)C2=O)sc1C(=O)NCc1cccnc1
20,163,Cn1nc(-c2cc(C(=O)O)c(Cl)cc2F)c(C=O)c1C(F)(F)F
21,110 to 113,COC(C(=O)O)C(=O)Oc1cccc(-c2cn3c(n2)sc2ccccc23)c1 (stereo not drawn)
22,126 to 127,Cc1oc(-c2ccc(C(N)=O)cc2)nc1CCOc1ccc(OC(C)(C)C(=O)O)cc1
23,125 to 126,COc1cc2c(cc1OCc1ccccc1)CCN(Cc1ccncc1)C2
24,202 to 204,O=C(O)CC1c2cc(C(F)(F)F)ccc2C(=O)N1CC(F)(F)F (racemic)
25,88 to 89,CCOC(=O)C(C)Oc1ncn(-c2ccccc2)n1 (stereo not drawn)

row,melting point [°C],SMILES
1,219 to 220,O=[N+]([O-])c1ccc2nc(-c3ccccc3)oc2n1
2,111 to 113,COc1ccc(COC(=O)c2ccc(C(O)C(=O)O)cc2)cc1 (stereo not drawn)
3,82 to 84,FCc1nc(C#CCCc2cn3cc(F)ccc3n2)cs1
4,110,CCOC(=O)NC(=S)CNc1ccc(C(=O)OC)c(S(=O)(=O)NC(C)(C)C)c1
5,116 to 118,CC(=O)Nc1ccc2c(c1)C(C)(C)CCC2(C)C
6,178 to 180,Cn1c2c3ccccc3nc-2cc2ccccc21
7,160 to 163,CSc1ccc(/C=C/C(=O)/C=C/C(=O)O)cc1
8,126 to 128,CCCCc1nc2ccccn2c(=O)c1-c1ccc(N2CCN(C(=O)OC(C)(C)C)CC2)nc1
9,245 to 247,CN1CCC(c2c[nH]c3ccc(NC(=O)c4sccc4Br)nc23)CC1
10,134 to 135,COC(=O)C(=Cc1ccc(OCc2ccccc2)cc1)C(=O)OC
11,147 to 148,COc1ccc(CNc2n[nH]c(N=CN(C)C)c2C#N)cc1
12,110 to 112,CCCc1ccc(-n2ncc(C#N)c2N(C(C)=O)C(C)=O)c(Cl)c1
13,193,Cn1c(S)nnc1C(O)(c1ccc(Cl)cc1)c1cc2c3c(c1)c(-c1cccc(Cl)c1)cc(=O)n3CO2 (stereo not drawn)
14,97 to 98,Cc1ccc(COc2ncc(F)c(NCO)n2)cc1
15,43 to 45,CNC(=S)NCCCc1ncco1
16,97 to 105,CCN(CC)C(=O)CC(=O)CC(=O)/C=C/c1c(C2CC2)nc2ccccc2c1-c1ccc(F)cc1
17,137 to 138,O=C(CC(Cc1ccccc1)C(=O)O)c1ccc(Cl)cc1 (racemic)
18,74 to 80,CCCOC1=Nc2c(ncn2-c2ccccc2)C2=N[C@@H](Cc3ccccc3)CN12
19,165 to 166,CC(=O)NC=Cc1ccc(OC(C)=O)cc1
20,196,Cc1c(C(=O)Nc2ccc(N3CCN(CCOCCO)CC3)c(C#N)c2)cnn1-c1ccc(Cl)cc1
21,234,O=C(Nc1cccc(S(=O)(=O)NCC2CC2)c1)c1cnn2c(C(F)(F)F)cc(-c3ccc(C(F)(F)F)cc3)nc12
22,132 to 134,CC(C)N(C[C@H](O)[C@H](Cc1ccccc1)NC(=O)OCc1ccccc1)NC(=O)C(C)(C)C
23,79 to 80,CCCCC(C)n1ncc(-c2ccc(S(C)(=O)=O)cc2)c(-c2ccc(F)cc2)c1=O (stereo not drawn)
24,270 to 271,Cc1nc(-c2ccccc2)nc(-c2ccncc2)c1C(=O)O
25,90 to 92,C=CCOc1ccc2c(=O)c(C)c(-c3ccccc3)oc2c1C(=O)C=Cc1cccc(OC)c1

row,melting point [°C],SMILES
1,204 to 206,Cc1cccnc1NC(=O)Nc1cccc2c1C1CC(O)CCN1C2=O (stereo not drawn)
2,47 to 48,Cc1noc(NS(=O)(=O)c2ccc(NCc3ccccc3)cc2)c1C
3,135 to 140,CC(N)C(=O)Nc1cc(OCC(F)(F)F)ccc1-c1cccnc1 (stereo not drawn)
4,> 350,O=c1cc2c3ccccc3sn2c2ccc(Cl)cc12
5,97 to 98,Cc1cc2c(c3occ(-c4ccc(C(C)C)cc4)c13)CCCC2
6,130 to 132,CCC(O)(CC)CC1NC(=O)c2ccccc21 (stereo not drawn)
7,207,O=C(O)CNC=C(Nc1cc(Cl)cc(Cl)c1)[N+](=O)[O-]
8,119 to 120,Cc1cc2c(s1)CCCNC2=O
9,230 to 232,O=c1cc(-c2ccncc2)nc2n1CCCN2CCCc1c[nH]c2ccccc12
10,101 to 102,CC1=C(C)C(=O)C(NCc2ccccc2)=CC1=O
11,131 to 133,COc1ccc(C(=O)CCC(=O)N[C@@H](Cc2ccccc2)C(=O)O)cc1
12,86 to 88,COc1cc(C(=O)Cl)ccc1S(=O)(=O)Cl
13,154 to 157,COc1ccc2[nH]cc(SCCN=C3CCCN3C)c2c1
14,238 to 239,CC1C(=O)NC(c2ccc(NC(=O)CCl)cc2)c2ccccc21 (stereo not drawn)
15,110 to 112,O=C(/C=C/C=C(c1ccccc1C(F)(F)F)c1ccccc1C(F)(F)F)NCCCCc1cccnc1
16,222,N#Cc1ncn2c(C(F)(F)F)cc(-c3cccnc3)nc12
17,181,COc1cc(N)c(I)cc1C(=O)O
18,136 to 138,CCC(=O)c1cn(C)cc(-c2cccc(C(F)(F)F)c2)c1=O
19,247 to 248,O=CNc1ccccc1C(=O)Nc1nnn[nH]1
20,210 to 211,CCc1cc2c(cc1Oc1ccc(C(=O)O)cc1C)C(C)(C)CCC2(C)C
21,164 to 168,CCOC(=O)/C=C/c1cc(-c2ccccc2)n(-c2ccc(S(C)(=O)=O)cc2)n1
22,106 to 107,CCOC(=O)c1cnoc1-c1ccc(F)c(Cl)c1
23,101 to 102,CCCOc1cc2c(=O)c3ccccc3sc2cc1Cl

row,SMILES,melting point [°C]
1,CCCN1CCO[C@@H]2c3cc4c(=O)n(OC)ccc4cc3CC[C@H]21,142 to 145
2,CN(C)C1Cc2cccc3[nH]c(=S)n(c23)C1 (stereo not drawn),203 to 205
3,CC1=NN=C(c2ccc([N+](=O)[O-])c(C)c2)c2cc3c(cc2C1)OCO3,189 to 194
4,CC(C)(CO)NC(=O)CBr,107 to 109
5,C=CCCN(CCC=C)Cc1noc(-c2ncn3c2[C@@H]2CCN2C(=O)c2c(Cl)cccc2-3)n1,115 to 120
